Laboratory results: patent publication US20030224992A1, “Transcription factor modulators and uses thereof” (Praecis Pharmaceuticals Inc., priority 2002, published 2003)

System: androgen responsive gene, kallikrein 3 (PSA II transcripts) in LNCaP cells
Test: Down-regulation of androgen receptor responsive gene expression by ARE (real time PCR)
Format: cell-based
Conditions: electroporation, 1, 5 or 20 μM, 10 nM DHT, 4 hours

5′-AGTCTACGAGTGGGGTTCTTTTTTA-3′ (SEQ ID NO: 24) (DNA AGTCTACGAGTGGGGTTCTTTTTTA; chemistry not given here) [scrambled ARE]
steady state levels of PSA II transcripts normalized to actin (DHT induction): this was not observed
